Laboratory results reported in patent US20080081075A1, “Multifunctional mixed micelle of graft and block copolymers and preparation thereof” (National Tsing Hua University, priority 2006, published 2008).

Legend:
[1] = test system: HeLa cells; assay: Cytotoxicity evaluation, MTT assay; format: cell-based; conditions: 48 h
Experimental: The cytotoxicity of each sample was determined by measuring the inhibition of cell growth using a tetrazolium dye (MTT) assay. […] HeLa cells (5×10^3 cell/mL) harvested in a logarithmic growth phase were seeded on 96 wells in Dulbecco's modified Eagle's medium (DMEM) with 10% fetal bovine serum (FBS) in a humidified atmosphere of 5% CO2 at 37° C. After the HeLa cells had been incubated in a logarithmic growth phase, samples with various concentrations of Dox were added for 48 h of co-culturing. At the end of the experiment, the MTT assay was conducted and the percentage of cell viability was calculated. Additionally, material cytotoxicities were measured using HeLa cells (5×10^3 cell/mL). The experimental process was identical to that described above.
HeLa cells (5×10^3 cell/ml) were used to study the cytotoxicity of free Dox and Dox-loaded mixed micelle by measuring the inhibition of cell growth using a tetrazolium dye (MTT) assay.
The Dox-loaded multifunctional micelles and free Dox were tested for in vitro cytotoxicity using a tetrazolium dye (MTT) method. The MTT-based cytotoxic activities of the Dox-loaded multifunctional micelles and free DOX were compared after 24 h and 72 h incubation with HeLa cells.

[2] = test system: HepG2 (human hepatocellular carcinoma) cells; assay: Internalization evaluation by confocal laser scanning microscopy with LysoTracker; format: cell-based; conditions: Dox ca. 10 μg/mL
Experimental: Internalization Evaluation. Accumulated Dox in HepG2 cells was localized using a Carl Zeiss LSM5 PASCAL confocal laser scanning microscope (CLSM). The […] cells were seeded on coverslides for 24 h and then treated with free Dox or Dox-loaded mixed micelles. Dox-loaded mixed micelles were washed with PBS twice to remove untrapped Dox before use. The concentration of Dox was ca. 10 μg/mL. After an interval, the cells were washed twice with PBS; then, the LysoTracker was added in a culture medium without FBS. After 30 min of incubation, the cells were washed with PBS and mounted on a slide with 4 wt % paraformaldehyde for CLSM observation. Fluorescence observation was carried out with a confocal microscope at 488 nm for excitation and an LP (long-pass) filter of 590 nm for Dox detection. […]
Confocal laser scanning microscopy (CLSM) was used to observe the intracellular drug release of mixed micelles. Confocal images were taken to observe the time-dependent fluorescence intensity of LysoTracker and Dox after mixed micelles were incubated with HepG2 (human hepatocellular carcinoma) cells. The red fluorescence from Dox and the green fluorescence from LysoTracker were detected in the intracellular compartment. […] Fluorescence from LysoTracker occurred in both the nucleus and cytoplasm because these are acidified by doxorubicin hydrochloride. […]

**Q.** What does the source list for `COc1cccc2c1C(=O)c1c(O)c3c(c(O)c1C2=O)C[C@@](O)(C(=O)CO)C[C@@H]3O[C@H]1C[C@H](N)[C@H](O)[C@H](C)O1` [free Dox, doxorubicin]?
**A.** activity compared with Dox-loaded mixed micelles and Dox-loaded Graft I micelles [1]: more potent activity; localization of Dox fluorescence ([2]; 1 h incubation): concentrated in the nucleus; localization of Dox fluorescence ([2]; 8 h incubation): concentrated in the nucleus
